The source of these data is article PMC8580319, “Dual activities of ACC synthase: Novel clues regarding the molecular evolution of ACS genes” (Science Advances, 2021).

Where a chain is given by its changes, count along the chain named.

Data set [1] addresses T1, AtACS7 (Arabidopsis thaliana, UniProt Q9STR4).
T1 construct: gene ACS7; recombinant from E. coli Rosetta 2 (DE3) pLysS; pET-28a (His) or pGEX-6p-1 (GST); His-tagged protein for crystals; dimer
T1 sequence (Q9STR4 1-447): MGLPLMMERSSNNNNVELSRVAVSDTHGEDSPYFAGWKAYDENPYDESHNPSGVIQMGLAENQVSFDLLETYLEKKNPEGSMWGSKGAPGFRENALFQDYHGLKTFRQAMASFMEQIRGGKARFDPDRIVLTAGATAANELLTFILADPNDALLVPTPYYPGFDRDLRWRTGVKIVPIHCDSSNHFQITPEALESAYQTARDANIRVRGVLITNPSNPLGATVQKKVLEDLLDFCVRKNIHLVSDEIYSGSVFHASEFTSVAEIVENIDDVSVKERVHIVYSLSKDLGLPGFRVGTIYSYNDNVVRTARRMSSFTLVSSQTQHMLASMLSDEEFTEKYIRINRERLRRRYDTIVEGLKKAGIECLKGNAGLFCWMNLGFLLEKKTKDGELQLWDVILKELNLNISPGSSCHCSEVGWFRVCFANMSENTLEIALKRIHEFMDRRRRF
As to the kind of experiment: inhibition of Cβ-S lyase activity, pyruvate assay. As to conditions: L-cystine 4 mM, 100 μM PLP, 30°C; forms adduct with PLP. Format: biochemical.

Data set [2] concerns the target T1, AtACS7. As to the kind of experiment: Cβ-S lyase activity with and without PLP, pyruvate assay. It counts as biochemical. The following applies: L-cystine 4 mM, 30°C.
In data set [3] the target is T2, AtACS7 (Arabidopsis thaliana, UniProt Q9STR4, D245N).
T2 construct: gene ACS7; recombinant from E. coli Rosetta 2 (DE3) pLysS; pET-28a (His) or pGEX-6p-1 (GST); His-tagged protein for crystals; dimer
T2 sequence (Q9STR4 1-447 D245N): T1 sequence (Q9STR4 1-447) with D245N
Description: ACC formation, converted to ethylene, GC. It counts as biochemical. As to conditions: ACS activity, reduced; 0.4 mM SAM, pH 8.5, 30°C, 10 μM PLP.

Data set [4] concerns the target AtACS7-R6 (AtACS7 in which BOX2 is replaced by PpACL1-BOX2) (Arabidopsis | Physcomitrella patens). Description: crystal structure; AtACS7-R6 with PPG (1 mM PLP and AVG added), hanging drop, 0.1 M Hepes pH 7.6, 6% PEG-10000; 2.95 Å; one dimer in the asymmetric unit.
Data set [5] concerns the molecule itself. Description: crystal structure; AtACS7 with PPG (1 mM PLP and AVG added), hanging drop, 0.1 M tris pH 8.6, 23% PEG-3350; 2.20 Å; four complexes as two dimers in the asymmetric unit.

`NCCO/C=C/[C@H](N)C(=O)O` [AVG]: at AtACS7 [1], the “inhibition at 5 μM” value is listed as “could be totally suppressed by adding AVG to the reaction mixture”. Take `Cc1ncc(COP(=O)(O)O)c(C=O)c1O` [PLP]: the “Cβ-S lyase activity with and without PLP, pyruvate assay” value on AtACS7 [2] is listed as “The Cβ-S lyase activity of AtACS7 was also PLP dependent”. For the molecule `C[S+](CC[C@H](N)C(=O)O)C[C@H]1O[C@@H](n2cnc3c(N)ncnc32)[C@H](O)[C@@H]1O` (some centres unmarked) [SAM], the “ACC formation, converted to ethylene, GC” value at AtACS7 [3] is on record as “mutant still retained considerable, albeit reduced, ACS activity”. By stoichiometry N is commonly meant a count of units in the complex or per binding partner. For “AtACS7-R6 (AtACS7 in which BOX2 is replaced by PpACL1-BOX2) (enzyme)”, the stoichiometry N in data set [4] was determined as 2.

B1: Arabidopsis ACS7 (AtACS7), 1-aminocyclopropane-1-carboxylate (ACC) synthase 7 (enzyme)
chain: T1 sequence (Q9STR4 1-447)
notes: ACC synthase 7 (AtACS7) of Arabidopsis thaliana, TAIR locus AT4G26200; vector pET-28a or pGEX-6p-1 per the methods, HisTrap purification points to the His form; also called wild-type AtACS7; source: E. coli BL21 [Rosetta 2 (DE3) plysS], purified (HisTrap, Hitrap Q HP ion exchange, Superdex 200 gel filtration)
Regarding B1, the “stoichiometry N” value in data set [5] was 2.
